Assay results from paper PMC9663686, “Proline, hydroxyproline, and pyrrolidone carboxylic acid derivatives as highly efficient but reversible transdermal permeation enhancers” (Scientific Reports, 2022).
Marks after values point to notes of the source that are not given here.

What was measured:
[1] = tested on: HaCaT spontaneously immortalized human keratinocytes; experiment: Neutral red (NR) uptake cell viability assay, HaCaT; type: cell-based; conditions: 48-h incubation, mean ± SEM, read-out: IC50, HaCaT cells, NR assay
Excerpt: Next, the in vitro toxicities of the most promising enhancers Pro3 and Pro4, along with the parent Pro2, on spontaneously immortalized human keratinocytes (HaCaT) and Swiss albino mouse embryonic fibroblasts (3T3) were studied (Fig. 3). […] The cellular toxicities were further probed using the 3-(4,5-dimethylthiazol-2-yl)-2,5-diphenyltetrazolium bromide (MTT) uptake assay, based on the transformation of yellow MTT into purple formazan by mitochondrial reductases of living cells. The MTT assay also yielded toxicity values in tens of µM with trends to higher toxicity with a longer acyl chain length (thus also higher lipophilicity) of enhancers (Fig. 3).
Cell viability was determined via 3-(4,5-dimethylthiazol-2-yl)-2,5-diphenyltetrazolium bromide (MTT) and neutral red (NR) uptake assays after 48-h incubation with the enhancers (see Supplementary data for details).
Both cell lines were cultivated in Dulbecco’s modified Eagle’s medium (DMEM, Lonza, Basel, Switzerland) supplemented with 10% heat-inactivated fetal bovine serum (Merck, Darmstadt, Germany), 10 mM HEPES buffer (Merck, Darmstadt, Germany), and 1% penicillin/streptomycin solution (Lonza, Basel, Switzerland) in 75-cm^2 tissue culture flasks (TPP, Trasadingen, Switzerland) at 37°C in a humidified atmosphere of 5% CO2. Subconfluent cells were sub-cultured every 3-4 days.
For toxicity studies, the stock-solutions of studied compounds were prepared in dimethyl sulfoxide (DMSO). These stock samples were diluted to the required concentration by the cell culture medium immediately before adding them onto the cells. The amount of DMSO applied to the cells was kept under its intrinsic measurable toxicity limit (below 1 vol.%). […]
Another approach used for the toxicity assessment was the neutral red (NR) uptake assay. […] The plates were shaken at rt for 30 min, and the optical density of the soluble NR was measured at λ = 540 nm using a Tecan Infinite 200 M plate reader.
The viability of each experimental group was expressed as the percentage of the untreated controls incubated under the same conditions (100%).

[2] = tested on: human skin; experiment: Transepidermal water loss (TEWL) of human skin in vitro, reversibility; conditions: for TEWL 1 h after the sample had been removed / TEWL 4 h after the sample had been removed / TEWL 8 h after the sample had been removed / TEWL 12 h after the sample had been removed / TEWL 24 h after the sample had been removed: 24-h application of 1% enhancer (1% Azone, 5% SDS) in 60% PG; for TEWL 1 h after the sample had been removed / TEWL 4 h after the sample had been removed / TEWL 8 h after the sample had been removed / TEWL 12 h after the sample had been removed / TEWL 24 h after the sample had been removed / TEWL before sample application (baseline): mean ± SEM; for TEWL values after 24-h treatment (range over the three enhancers): 1% in 60% PG, baseline around 27 g/m^2/h; for time after enhancer removal for TEWL to decline to values similar to baseline: after 24-h application of 1% enhancer in 60% PG
Excerpt: We further investigated the direct effects of the selected enhancers on the skin barrier assessed by TEWL and the electrical impedance of human skin in vitro. TEWL is a method commonly used in dermatology[38] to study, for example, the irritant potential of chemicals, skin barrier recovery, or effect of topical formulations, and permeation enhancers[17],[21],[41]–[44]. Electrical impedance measures the opposition of the skin to alternating electrical current and is inversely proportional to the flux of ions. Thus, increased TEWL or decreased impedance indicates a barrier impairment[45],[46]. Electrical impedance or conductance measurements have been used to screen new enhancers or assess the irritation potential of compounds[13],[15],[17],[21],[32],[44],[47]–[50]. Both TEWL and impedance can distinguish between reversible and irreversible effects of enhancers on skin permeability[17],[21],[40],[44],[51].
Human skin was mounted in Franz diffusion cells in the same way as for the permeation studies. After 1-h equilibration, basal TEWL and impedance values were recorded. Then, 1% enhancer in 60% PG, 60% PG as a negative control, 1% Azone in 60% PG, or 5% SDS in 60% PG as positive (irreversible) controls was applied on the skin (100 µl/cm^2) for 24 h. The residual sample was washed with PBS and gently blotted dry. At 1, 4, 8, 12, and 24 h after sample removal, TEWL, and impedance values were recorded. TEWL was measured using AquaFlux AF 200 (Biox Systems Ltd, London, UK), employing the condenser-chamber measurement method at 26 ± 1.0 °C and 43 ± 3% relative air humidity. Electrical impedance was measured by LCR meter 4080 (Conrad electronic, Hirschau, Germany, measuring range 20 Ω–10 MΩ, error at kΩ values < 0.5%) operated in parallel mode with an alternating frequency of 120 Hz, which was also used in our previous work[21],[44].
Samples were removed from the skin after 24 h, and TEWL and impedance values were recorded in predetermined time intervals (1, 4, 8, 12, and 24 h after sample removal). Data are presented as the means ± SEM; n ≥ 3. * statistically significant difference compared to the baseline value before the sample application at p < 0.05. ^+ statistically significant compared to the value 1 h after the sample removal at p < 0.05.^ ≠ statistically significant compared to the control (60% PG without enhancer) at the same time point, at p < 0.05.

| SMILES | IC50 [1] [µM] | TEWL 1 h after the sample had been removed [2] | TEWL 4 h after the sample had been removed [2] | TEWL 8 h after the sample had been removed [2] | TEWL 12 h after the sample had been removed [2] | TEWL 24 h after the sample had been removed [2] | TEWL values after 24-h treatment (range over the three enhancers) [2] | reversibility of TEWL increase ([2]; after 24-h application, followed 24 h after removal) | TEWL before sample application (baseline) [2] [g/m^2/h] | time after enhancer removal for TEWL to decline to values similar to baseline [2] [h] |
| --- | --- | --- | --- | --- | --- | --- | --- | --- | --- | --- |
| CCCCCCCCCCCCOC(=O)C1CCCN1C(C)=O (stereo not drawn) [Pro2, N-acetyl proline dodecyl ester] | 98.1 ± 4.49 | 65.4 ± 1.5*^≠ g/m^2/h | 56.0 ± 1.3*^≠ g/m^2/h | 45.9 ± 1.5*^≠+ g/m^2/h | 42.5 ± 2.5*^≠+ g/m^2/h | 41.8 ± 1.0*^≠+ g/m^2/h | 50–65 g/m^2/h | only partly reversible within 24 h | 25.0 ± 3.0 |  |
| CCCCCCCCCCCCOC(=O)C1CCCN1C(=O)CC (stereo not drawn) [Pro3] | 74.4 ± 1.75 | 59.4 ± 5.6*^≠ g/m^2/h | 47.1 ± 1.7*^≠+ g/m^2/h | 36.5 ± 1.1^+ g/m^2/h | 30.2 ± 2.2^+ g/m^2/h | 27.4 ± 2.2^+ g/m^2/h | 50–65 g/m^2/h |  | 27.5 ± 6.3 | ≤ 8 |
| CCCCCCCCCCCCOC(=O)C1CCCN1C(=O)CCC (stereo not drawn) [Pro4] | 54.6 ± 1.11 | 49.9 ± 5.2*^≠ g/m^2/h | 39.4 ± 2.5*^+ g/m^2/h | 30.5 ± 1.3^+ g/m^2/h | 26.3 ± 1.8^+ g/m^2/h | 25.0 ± 2.8^+ g/m^2/h | 50–65 g/m^2/h |  | 27.3 ± 4.1 | ≤ 8 |
